Measurements published in US8012956B2, “Tropane compounds” (Exelixis, Inc., priority 2007, dated 2011).

Target: HSP90 (Homo sapiens, UniProt P07900)
Assay: HSP90 inhibition (HSP90 IC50)
Type: biochemical

| Compound | IC50 |
| --- | --- |
| CC(=O)c1ccc(N2[C@@H]3CC[C@H]2C[C@@H](NC(=O)c2ccc(C(N)=O)c(NCC4CCNC4)c2)C3)nc1 (stereo partly drawn) [N4-[8-(5-acetylpyridin-2-yl)-8-azabicyclo[3.2.1]oct-3-endo-yl]-2-[(pyrrolidin-3-ylmethyl)amino]benzene-1,4-dicarboxamide] | < 500 nM |
| Cc1cc(C(=O)NC2CC3CCC(C2)N3c2ccc(C(=O)N[C@@H]3CCCN(C(C)C)C3)cn2)c(C)cc1C(N)=O (stereo partly drawn) [2,5-dimethyl-N-{8-[5-({[(3R)-1-(1-methylethyl)piperidin-3-yl]amino}carbonyl)pyridin-2-yl]-8-azabicyclo[3.2.1]oct-3-endo-yl}benzene-1,4-dicarboxamide] | < 500 nM |
| NC(=O)c1cc(Br)c(C(=O)N[C@H]2C[C@H]3CC[C@@H](C2)N3c2ccc(C(=O)C3CC3)cn2)cc1NC1CCC1 [2-bromo-5-(cyclobutylamino)-N-{8-[5-(cyclopropylcarbonyl)pyridin-2-yl]-8-azabicyclo[3.2.1]oct-3-endo-yl}benzene-1,4-dicarboxamide] | < 500 nM |
| CC(=O)c1ccc(N2[C@@H]3CC[C@H]2C[C@@H](NC(=O)c2ccc(C(N)=O)c(NC4CCOCC4)c2)C3)nc1 [N4-[8-(5-acetylpyridin-2-yl)-8-azabicyclo[3.2.1]oct-3-endo-yl]-2-(tetrahydro-2H-pyran-4-ylamino)benzene-1,4-dicarboxamide] | < 500 nM |
| CCC(CC)Nc1cc(C(=O)N[C@H]2C[C@H]3CC[C@@H](C2)N3c2ccc(C(C)=O)cn2)c(C)cc1C(N)=O | < 500 nM |
| N-{8-[5-(cyclopropylcarbonyl)pyridin- 2-yl]-8-azabicyclo[3.2.1]oct-3-endo- yl}-5-[(1-ethylpropyl)amino]-2- methylbenzene-1,4-dicarboxamide | < 500 nM |
| Cc1cc(C(N)=O)cc(C)c1C(=O)N[C@H]1C[C@H]2CC[C@@H](C1)N2c1ccc(C(=O)NCc2ccccc2)cn1 [2,6-dimethyl-N1-[8-(5-{[(phenylmethyl)amino]carbonyl}pyridin-2-yl)-8-azabicyclo[3.2.1]oct-3-endo-yl]benzene-1,4-dicarboxamide] | 500 to 999 nM |
| 2-((cyclopropylmethyl)amino]-N4-{8- [5-({[(3R)-1-(1-methylethyl)pyrrolidin- 3-yl]amino}carbonyl)pyridin-2-yl]-8- azabicyclo[3.2.1]oct-3-endo- yl}benzene-1,4-dicarboxamide | < 500 nM |
| COc1cccc(C(=O)N[C@H]2C[C@H]3CC[C@@H](C2)N3c2ccc(C(=O)NCc3ccccc3N3CCN(C)CC3)cn2)c1C [6-[3-endo-({[2-methyl-3-(methyloxy)phenyl]carbonyl}amino)-8-azabicyclo[3.2.1]oct-8-yl]-N-{[2-(4-methylpiperazin-1-yl)phenyl]methyl}pyridine-3-carboxamide] | 1000 to 2000 nM |
| COc1ccc(Nc2cc(C(=O)N[C@H]3C[C@H]4CC[C@@H](C3)N4c3ccc(C(C)=O)cn3)ccc2C(N)=O)cc1OCCN1CCOCC1 [N4-[8-(5-acetylpyridin-2-yl)-8-azabicyclo[3.2.1]oct-3-endo-yl]-2-({4-(methyloxy)-3-[(2-morpholin-4-ylethyl)oxy]phenyl}amino)benzene-1,4-dicarboxamide] | < 500 nM |
| NC(=O)c1ccc(C(=O)N[C@H]2C[C@H]3CC[C@@H](C2)N3c2ccc(C(=O)CCC3CCCCC3)cn2)cc1NCC1CC1 [N4-{8-[5-(3-cyclohexylpropanoyl)pyridin-2-yl]-8-azabicyclo[3.2.1]oct-3-endo-yl}-2-[(cyclopropylmethyl)amino]benzene-1,4-dicarboxamide] | 1000 to 2000 nM |
| NC(=O)c1cc(Br)c(C(=O)N[C@H]2C[C@H]3CC[C@@H](C2)N3c2ccc(C(=O)C3CC3)cn2)cc1NCCC(F)(F)F [2-bromo-N-{8-[5-(cyclopropylcarbonyl)pyridin-2-yl]-8-azabicyclo[3.2.1]oct-3-endo-yl}-5-[(3,3,3-trifluoropropyl)amino]benzene-1,4-dicarboxamide] | < 500 nM |
| CCC(=O)c1ccc(N2[C@@H]3CC[C@H]2C[C@@H](NC(=O)c2ccc(C(N)=O)c(NCC4CC4)c2)C3)nc1 [2-[(cyclopropylmethyl)amino]-N4-[8-(5-propanoylpyridin-2-yl)-8-azabicyclo[3.2.1]oct-3-endo-yl]benzene-1,4-dicarboxamide] | < 500 nM |
| COc1cc(C(=O)N[C@H]2C[C@H]3CC[C@@H](C2)N3c2ccc(C(N)=O)cn2)ccc1CO [6-[3-endo-({[4-(hydroxymethyl)-3-(methyloxy)phenyl]carbonyl}amino)-8-azabicyclo[3.2.1]oct-8-yl]pyridine-3-carboxamide] | 500 to 999 nM |
| N4-[8-(5-butanoylpyridin-2-yl)-8- azabicyclo[3.2.1]oct-3-endo-yl]-2- [(cyclopropylmethyl)amino]benzene- 1,4-dicarboxamide | 500 to 999 nM |
| COc1cccc(C(=O)N[C@H]2C[C@H]3CC[C@@H](C2)N3c2ccc(C(=O)NCc3ccc(N4CCOCC4)cc3)cn2)c1C [6-[3-endo-({[2-methyl-3-(methyloxy)phenyl]carbonyl}amino)-8-azabicyclo[3.2.1]oct-8-yl]-N-[(4-morpholin-4-ylphenyl)methyl]pyridine-3-carboxamide] | < 500 nM |
| CC(=O)c1ccc(N2[C@@H]3CC[C@H]2C[C@@H](NC(=O)c2ccc(C(N)=O)c(Nc4cccc(OCCN(C)C)c4)c2)C3)nc1 [N4-[8-(5-acetylpyridin-2-yl)-8-azabicyclo[3.2.1]oct-3-endo-yl]-2-[(3-{[2-(dimethylamino)ethyl]oxy}phenyl)amino] benzene-1,4-dicarboxamide] | < 500 nM |
| Cc1cc(OC(N)=O)ccc1C(=O)N[C@H]1C[C@H]2CC[C@@H](C1)N2c1ccc(C(=O)NCc2ccccc2)cn1 [3-methyl-4-({[8-(5-{[(phenylmethyl)amino]carbonyl}pyridin-2-yl)-8-azabicyclo[3.2.1]oct-3-endo-yl]amino}carbonyl)phenyl carbamate] | 2000 to 10000 nM |
| Cc1c(N)cccc1C(=O)N[C@H]1C[C@H]2CC[C@@H](C1)N2c1ccc(C(=O)NCc2ccccc2)cn1 [6-(3-endo-{[(3-amino-2-methylphenyl)carbonyl]amino}-8-azabicyclo[3.2.1]oct-8-yl)-N-(phenylmethyl)pyridine-3-carboxamide] | 2000 to 10000 nM |
| CCC(CC)Nc1cc(C(=O)NC2CC3CCC(C2)N3c2ccc(C(=O)NCC3CCCN3CC)cn2)c(C)cc1C(N)=O (stereo not drawn) [5-[(1-ethylpropyl)amino]-N-{8-[5-({[(1-ethylpyrrolidin-2-yl)methyl]amino}carbonyl)pyridin-2-yl]-8-azabicyclo[3.2.1]oct-3-endo-yl}-2-methylbenzene-1,4-dicarboxamide] | < 500 nM |
| COc1cccc(C(=O)NC2CC3CCC(C2)N3c2ccc(C(=O)N[C@H]3CCN(C)C3)cn2)c1C (stereo partly drawn) [6-[3-endo-({[2-methyl-3-(methyloxy)phenyl]carbonyl}amino)-8-azabicyclo[3.2.1]oct-8-yl]-N-[(3S)-1-methylpyrrolidin-3-yl]pyridine-3-carboxamide] | 1000 to 2000 nM |

The remaining lines, values ahead:

| IC50 | Compound |
| --- | --- |
| 500 to 999 nM | COc1cccc(C(=O)N[C@H]2C[C@H]3CC[C@@H](C2)N3c2ccc(C(=O)NC3CCC3)cn2)c1C [N-cyclobutyl-6-[3-endo-({[2-methyl-3-(methyloxy)phenyl]carbonyl}amino)-8-azabicyclo[3.2.1]oct-8-yl]pyridine-3-carboxamide] |
| 1000 to 2000 nM | NC(=O)c1ccc(C(=O)N[C@H]2C[C@H]3CC[C@@H](C2)N3c2ccc(C(N)=O)cn2)cc1 [N-{8-[5-(aminocarbonyl)pyridin-2-yl]-8-azabicyclo[3.2.1]oct-3-endo-yl}benzene-1,4-dicarboxamide] |
| < 500 nM | CCN(CC)CCOc1cccc(CNC(=O)c2ccc(N3[C@@H]4CC[C@H]3C[C@@H](NC(=O)c3cccc(OC)c3C)C4)nc2)c1 [N-[(3-{[2-(diethylamino)ethyl]oxy}pheny)methyl]-6-[3-endo-({[2-methyl-3-(methyloxy)phenyl]carbonyl}amino)-8-azabicyclo[3.2.1]oct-8-yl]pyridine-3-carboxamide] |
| 1000 to 2000 nM | COc1cccc(C(=O)N[C@H]2C[C@H]3CC[C@@H](C2)N3c2ccc(C(=O)Nc3ccc4c(c3)OCO4)cn2)c1C [N-1,3-benzodioxol-5-yl-6-[3-endo-({[2-methyl-3-(methyloxy)phenyl]carbonyl}amino)-8-azabicyclo[3.2.1]oct-8-yl]pyridine-3-carboxamide] |
| 500 to 999 nM | COCCOc1cc(C(=O)N[C@H]2C[C@H]3CC[C@@H](C2)N3c2ccc(C(=O)C3CC3)cn2)c(C)cc1C(N)=O [N-{8-[5-(cyclopropylcarbonyl)pyridin-2-yl]-8-azabicyclo[3.2.1]oct-3-endo-yl}-2-methyl-5-{[2-(methyloxy)ethyl]oxy}benzene-1,4-dicarboxamide] |
| 1000 to 2000 nM | NC(=O)c1ccc(C(=O)N[C@H]2C[C@H]3CC[C@@H](C2)N3c2ccc(C(=O)C3CCC3)cn2)cc1NCC1CC1 [N4-{8-[5-(cyclobutylcarbonyl)pyridin-2-yl]-8-azabicyclo[3.2.1]oct-3-endo-yl}-2-[(cyclopropylmethyl)amino]benzene-1,4-dicarboxamide] |
| 1000 to 2000 nM | COc1cccc(C(=O)N[C@H]2C[C@H]3CC[C@@H](C2)N3c2ccc(C(=O)NCCC(C)C)cn2)c1C [N-(3-methylbutyl)-6-[3-endo-({[2-methyl-3-(methyloxy)phenyl]carbonyl}amino)-8-azabicyclo[3.2.1]oct-8-yl]pyridine-3-carboxamide] |
| < 500 nM | CCN1CCC[C@@H](NC(=O)c2ccc(N3C4CCC3CC(NC(=O)c3cc(C)c(C(N)=O)cc3C)C4)nc2)C1 (stereo partly drawn) [N-{8-[5-({[(3R)-1-ethylpiperidin-3-yl]amino}carbonyl)pyridin-2-yl]-8-azabicyclo[3.2.1]oct-3-endo-yl}-2,5-dimethylbenzene-1,4-dicarboxamide] |
| 1000 to 2000 nM | COc1cccc(C(=O)N[C@H]2C[C@H]3CC[C@@H](C2)N3c2ccc(C(=O)NCCN(C)C)cn2)c1C [N-[2-(dimethylamino)ethyl]-6-[3-endo-({[2-methyl-3-(methyloxy)phenyl]carbonyl}amino)-8-azabicyclo[3.2.1]oct-8-yl]pyridine-3-carboxamide] |
| < 500 nM | COc1cc(F)c(CNC(=O)c2ccc(N3[C@@H]4CC[C@H]3C[C@@H](NC(=O)c3cccc(OC)c3C)C4)nc2)c(F)c1 [N-{[2,6-difluoro-4-(methyloxy)phenyl]methyl}-6-[3-endo-({[2-methyl-3-(methyloxy)phenyl]carbonyl}amino)-8-azabicyclo[3.2.1]oct-8-yl]pyridine-3-carboxamide] |
